# Measurements from ChEMBL document CHEMBL1909046, “DrugMatrix in vitro pharmacology data”.
# What was measured:
# [1] = DRUGMATRIX: Atrial Natriuretic Factor (ANF) radioligand binding (ligand: [125I] ANF (rat)); format: cell membranes, Cavia porcellus, Dunkin-Hartley, Adrenal gland, Membrane; conditions: Not Active = under 50% inhibition at 10 µM
# [2] = target: T1, Alpha-1B adrenergic receptor (Rattus norvegicus, UniProt P15823); experiment: DRUGMATRIX: Alpha-1B adrenergic receptor radioligand binding (ligand: prazosin); format: cell membranes, Wistar, Liver, Membrane; conditions: Not Active = under 50% inhibition at 10 µM
# T1 sequence (P15823 whole entry): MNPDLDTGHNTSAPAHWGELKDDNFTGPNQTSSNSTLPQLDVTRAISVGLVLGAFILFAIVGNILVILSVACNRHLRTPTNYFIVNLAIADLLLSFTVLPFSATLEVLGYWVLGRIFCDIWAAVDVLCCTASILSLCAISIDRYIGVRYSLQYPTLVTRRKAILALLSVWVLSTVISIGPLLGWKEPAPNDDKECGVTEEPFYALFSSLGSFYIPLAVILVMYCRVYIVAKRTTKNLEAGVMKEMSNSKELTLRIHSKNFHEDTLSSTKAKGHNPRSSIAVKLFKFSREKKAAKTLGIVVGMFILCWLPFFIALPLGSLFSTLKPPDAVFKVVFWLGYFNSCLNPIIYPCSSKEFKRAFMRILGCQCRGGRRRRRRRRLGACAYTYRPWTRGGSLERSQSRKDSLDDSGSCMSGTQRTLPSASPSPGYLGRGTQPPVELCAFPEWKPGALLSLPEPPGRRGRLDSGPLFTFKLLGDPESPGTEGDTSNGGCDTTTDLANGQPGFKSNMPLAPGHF
# [3] = target: T2, Neuropeptide Y receptor type 1 (Homo sapiens, UniProt P25929); format: cell membranes, Membrane; conditions: sk-n-mc; further: in other assays of this panel Not Active means under 50% inhibition at 10 µM
# T2 sequence (P25929 whole entry): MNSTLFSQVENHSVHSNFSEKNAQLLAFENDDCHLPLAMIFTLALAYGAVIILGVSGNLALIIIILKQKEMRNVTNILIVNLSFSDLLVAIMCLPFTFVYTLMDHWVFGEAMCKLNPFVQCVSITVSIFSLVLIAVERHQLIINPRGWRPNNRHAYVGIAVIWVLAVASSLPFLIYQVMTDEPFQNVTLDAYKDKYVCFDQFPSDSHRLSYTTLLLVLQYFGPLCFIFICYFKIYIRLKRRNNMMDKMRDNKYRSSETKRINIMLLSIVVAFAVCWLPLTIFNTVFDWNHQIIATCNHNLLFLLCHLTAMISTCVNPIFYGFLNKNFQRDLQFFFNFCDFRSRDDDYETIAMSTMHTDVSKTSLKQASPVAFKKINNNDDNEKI
# [4] = DRUGMATRIX: Tumor Necrosis Factor (TNF), Non-Selective radioligand binding (ligand: [125I] TNF-alpha); format: cell membranes, Membrane; conditions: u-937; Not Active = under 50% inhibition at 10 µM
# [5] = target: T3, Nitric oxide synthase, inducible (Mus musculus, UniProt P29477); design: species or system Escherichia coli;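 further: inhibition of iNOS enzyme activity measured with L-arginine as substrate; in other assays of this panel Not Active means under 50% inhibition at 10 µM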
# T3 sequence (P29477 whole entry): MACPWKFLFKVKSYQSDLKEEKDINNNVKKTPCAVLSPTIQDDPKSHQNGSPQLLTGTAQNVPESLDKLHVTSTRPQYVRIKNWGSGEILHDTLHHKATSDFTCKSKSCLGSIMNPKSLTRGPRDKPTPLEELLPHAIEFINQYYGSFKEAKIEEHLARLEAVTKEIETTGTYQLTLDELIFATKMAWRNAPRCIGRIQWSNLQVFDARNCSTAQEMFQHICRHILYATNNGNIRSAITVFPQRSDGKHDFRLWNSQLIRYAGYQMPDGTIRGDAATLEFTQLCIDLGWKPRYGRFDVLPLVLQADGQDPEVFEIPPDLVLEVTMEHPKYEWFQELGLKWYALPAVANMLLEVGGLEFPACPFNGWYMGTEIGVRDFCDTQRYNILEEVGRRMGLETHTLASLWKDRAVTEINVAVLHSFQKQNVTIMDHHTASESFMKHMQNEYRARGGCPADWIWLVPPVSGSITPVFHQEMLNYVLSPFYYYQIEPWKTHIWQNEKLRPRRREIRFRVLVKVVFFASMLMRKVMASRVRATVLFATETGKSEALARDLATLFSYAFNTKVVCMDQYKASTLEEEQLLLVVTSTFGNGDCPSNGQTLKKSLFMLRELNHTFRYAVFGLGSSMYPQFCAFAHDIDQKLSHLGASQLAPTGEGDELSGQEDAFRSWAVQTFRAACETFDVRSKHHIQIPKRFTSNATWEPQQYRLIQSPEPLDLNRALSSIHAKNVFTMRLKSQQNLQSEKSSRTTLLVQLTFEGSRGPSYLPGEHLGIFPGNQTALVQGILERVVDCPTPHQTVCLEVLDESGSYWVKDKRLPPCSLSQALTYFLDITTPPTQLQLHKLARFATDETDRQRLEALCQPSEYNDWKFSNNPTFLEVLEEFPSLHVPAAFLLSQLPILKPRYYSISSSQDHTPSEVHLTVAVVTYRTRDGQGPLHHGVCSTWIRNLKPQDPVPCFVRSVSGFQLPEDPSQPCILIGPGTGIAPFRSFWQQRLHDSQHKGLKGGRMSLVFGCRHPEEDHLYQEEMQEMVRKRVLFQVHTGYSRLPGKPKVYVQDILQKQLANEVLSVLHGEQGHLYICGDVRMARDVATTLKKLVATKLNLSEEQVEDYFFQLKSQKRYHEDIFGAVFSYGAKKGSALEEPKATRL
# [6] = DRUGMATRIX: Sodium/nucleoside co-transporter radioligand binding (ligand: nitrobenzylthioinosine); format: cell membranes, Cavia porcellus, Dunkin-Hartley, Cerebral cortex, Membrane; conditions: Not Active = under 50% inhibition at 10 µM
# Leukotriene C4 synthase = target: T4, Leukotriene C4 synthase (Cavia porcellus, UniProt A6XA80); format: tissue-based, Lung;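 further: enzyme inhibition assay of leukotriene C4 synthase, using LTA4 as the substrate; in other assays of this panel Not Active means under 50% inhibition at 10 µM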
# T4 sequence (A6XA80 whole entry): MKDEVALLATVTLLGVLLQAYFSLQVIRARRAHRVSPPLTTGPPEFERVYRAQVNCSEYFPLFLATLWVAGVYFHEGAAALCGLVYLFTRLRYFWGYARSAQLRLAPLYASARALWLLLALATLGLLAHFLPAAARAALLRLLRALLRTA
# [7] = target: T5, Cysteinyl leukotriene receptor 1 (Homo sapiens, UniProt Q9Y271); format: cell membranes, Membrane; conditions: cho-k1; further: in other assays of this panel Not Active means under 50% inhibition at 10 µM
# T5 sequence (Q9Y271 whole entry): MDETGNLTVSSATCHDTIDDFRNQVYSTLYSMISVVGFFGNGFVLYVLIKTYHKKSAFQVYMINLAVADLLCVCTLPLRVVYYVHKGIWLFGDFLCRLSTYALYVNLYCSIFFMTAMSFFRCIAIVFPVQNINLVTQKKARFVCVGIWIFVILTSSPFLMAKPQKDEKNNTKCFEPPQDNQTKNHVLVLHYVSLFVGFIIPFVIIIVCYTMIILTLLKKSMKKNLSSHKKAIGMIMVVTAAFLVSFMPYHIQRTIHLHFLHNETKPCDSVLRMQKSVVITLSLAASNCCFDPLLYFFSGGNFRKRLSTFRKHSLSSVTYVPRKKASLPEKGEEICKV
SMILES,IC50 [1],Ki [1],IC50 [2],IC50 [3],IC50 [4],Ki [4],IC50 [5],IC50 [6],Ki [6],IC50 (Leukotriene C4 synthase),IC50 [7],IC50 ([2]; read-out: IC50) [µM],Ki ([2]; read-out: Ki) [µM]
O=C1CN=C(c2ccccc2Cl)c2cc([N+](=O)[O-])ccc2N1 [CLONAZEPAM],Not Active,Not Active,Not Active,Not Active,Not Active,Not Active,Not Active,Not Active,Not Active,Not Active,Not Active,–,–
C[C@@H](CO)NC(=O)[C@@H]1C=C2c3cccc4[nH]cc(c34)C[C@H]2N(C)C1 [ERGONOVINE],Not Active,Not Active,Not Active,Not Active,Not Active,Not Active,Not Active,Not Active,Not Active,Not Active,Not Active,–,–
CCn1cc(C(=O)O)c(=O)c2cnc(N3CCCC3)nc21 [PIROMIDIC ACID],Not Active,Not Active,Not Active,Not Active,Not Active,Not Active,Not Active,Not Active,Not Active,Not Active,Not Active,–,–
C[C@@H]1C[C@H]2[C@@H]3CCC4=CC(=O)C=C[C@]4(C)[C@@]3(F)[C@@H](O)C[C@]2(C)[C@H]1C(=O)CO [DESOXIMETASONE],Not Active,Not Active,Not Active,Not Active,Not Active,Not Active,Not Active,Not Active,Not Active,Not Active,Not Active,–,–
CN(C)CC[C@@H](c1ccc(Cl)cc1)c1ccccn1 [DEXCHLORPHENIRAMINE],Not Active,Not Active,–,Not Active,Not Active,Not Active,Not Active,Not Active,Not Active,Not Active,Not Active,15.6,8.61
